Data as given in the NIST ThermoML archive (doi:10.1021/je060271a).
± gives the expanded uncertainty stated by the source.

Settings: 283.16 K, Liquid, Vibrating tube method

## CCCC(=O)OCC(COC(=O)CCC)(COC(=O)CCC)COC(=O)CCC [pentaerythritol tetrabutyrate]
17568 kPa
  mass density: 1069.2 ± 1.3 kg/m3
17577 kPa
  mass density: 1069.2 ± 1.3 kg/m3
17586 kPa
  mass density: 1069.2 ± 1.3 kg/m3
17598 kPa
  mass density: 1069.1 ± 1.3 kg/m3
17607 kPa
  mass density: 1069.2 ± 1.3 kg/m3
17618 kPa
  mass density: 1069.1 ± 1.3 kg/m3
17628 kPa
  mass density: 1069.2 ± 1.3 kg/m3
17637 kPa
  mass density: 1069.2 ± 1.3 kg/m3
17646 kPa
  mass density: 1069.1 ± 1.3 kg/m3
17658 kPa
  mass density: 1069.1 ± 1.3 kg/m3
17668 kPa
  mass density: 1069.2 ± 1.3 kg/m3
17678 kPa
  mass density: 1069.3 ± 1.3 kg/m3
17687 kPa
  mass density: 1069.2 ± 1.3 kg/m3
17698 kPa
  mass density: 1069.3 ± 1.3 kg/m3
17708 kPa
  mass density: 1069.2 ± 1.3 kg/m3
17717 kPa
  mass density: 1069.2 ± 1.3 kg/m3
17790 kPa
  mass density: 1069.3 ± 1.3 kg/m3
17800 kPa
  mass density: 1069.4 ± 1.3 kg/m3
17810 kPa
  mass density: 1069.3 ± 1.3 kg/m3
17820 kPa
  mass density: 1069.2 ± 1.3 kg/m3
17831 kPa
  mass density: 1069.3 ± 1.3 kg/m3
17841 kPa
  mass density: 1069.3 ± 1.3 kg/m3
17850 kPa
  mass density: 1069.3 ± 1.3 kg/m3
17862 kPa
  mass density: 1069.3 ± 1.3 kg/m3
17872 kPa
  mass density: 1069.3 ± 1.3 kg/m3
17882 kPa
  mass density: 1069.3 ± 1.3 kg/m3
17892 kPa
  mass density: 1069.3 ± 1.3 kg/m3
17903 kPa
  mass density: 1069.4 ± 1.3 kg/m3
17913 kPa
  mass density: 1069.3 ± 1.3 kg/m3
17922 kPa
  mass density: 1069.4 ± 1.3 kg/m3
17935 kPa
  mass density: 1069.4 ± 1.3 kg/m3
17944 kPa
  mass density: 1069.4 ± 1.3 kg/m3
17954 kPa
  mass density: 1069.3 ± 1.3 kg/m3
17966 kPa
  mass density: 1069.4 ± 1.3 kg/m3
17976 kPa
  mass density: 1069.5 ± 1.3 kg/m3
17986 kPa
  mass density: 1069.4 ± 1.3 kg/m3
17997 kPa
  mass density: 1069.4 ± 1.3 kg/m3
18007 kPa
  mass density: 1069.4 ± 1.3 kg/m3
18017 kPa
  mass density: 1069.5 ± 1.3 kg/m3
18029 kPa
  mass density: 1069.4 ± 1.3 kg/m3
18039 kPa
  mass density: 1069.5 ± 1.3 kg/m3
18049 kPa
  mass density: 1069.3 ± 1.3 kg/m3
18061 kPa
  mass density: 1069.4 ± 1.3 kg/m3
18071 kPa
  mass density: 1069.4 ± 1.3 kg/m3
18081 kPa
  mass density: 1069.5 ± 1.3 kg/m3
18157 kPa
  mass density: 1069.4 ± 1.3 kg/m3
18188 kPa
  mass density: 1069.4 ± 1.3 kg/m3
18199 kPa
  mass density: 1069.5 ± 1.3 kg/m3
18209 kPa
  mass density: 1069.5 ± 1.3 kg/m3
18219 kPa
  mass density: 1069.6 ± 1.3 kg/m3
18231 kPa
  mass density: 1069.6 ± 1.3 kg/m3
18241 kPa
  mass density: 1069.4 ± 1.3 kg/m3
18254 kPa
  mass density: 1069.5 ± 1.3 kg/m3
18286 kPa
  mass density: 1069.5 ± 1.3 kg/m3
18361 kPa
  mass density: 1069.6 ± 1.3 kg/m3
18371 kPa
  mass density: 1069.7 ± 1.3 kg/m3
18381 kPa
  mass density: 1069.5 ± 1.3 kg/m3
18394 kPa
  mass density: 1069.7 ± 1.3 kg/m3
18404 kPa
  mass density: 1069.6 ± 1.3 kg/m3
18414 kPa
  mass density: 1069.7 ± 1.3 kg/m3
18426 kPa
  mass density: 1069.5 ± 1.3 kg/m3
18436 kPa
  mass density: 1069.6 ± 1.3 kg/m3
18449 kPa
  mass density: 1069.6 ± 1.3 kg/m3
18459 kPa
  mass density: 1069.6 ± 1.3 kg/m3
18469 kPa
  mass density: 1069.7 ± 1.3 kg/m3
18480 kPa
  mass density: 1069.6 ± 1.3 kg/m3
18492 kPa
  mass density: 1069.7 ± 1.3 kg/m3
18502 kPa
  mass density: 1069.7 ± 1.3 kg/m3
18513 kPa
  mass density: 1069.7 ± 1.3 kg/m3
18525 kPa
  mass density: 1069.7 ± 1.3 kg/m3
18536 kPa
  mass density: 1069.7 ± 1.3 kg/m3
18548 kPa
  mass density: 1069.7 ± 1.3 kg/m3
18559 kPa
  mass density: 1069.6 ± 1.3 kg/m3
18569 kPa
  mass density: 1069.6 ± 1.3 kg/m3
18579 kPa
  mass density: 1069.8 ± 1.3 kg/m3
18592 kPa
  mass density: 1069.7 ± 1.3 kg/m3
18603 kPa
  mass density: 1069.8 ± 1.3 kg/m3
18614 kPa
  mass density: 1069.7 ± 1.3 kg/m3
18627 kPa
  mass density: 1069.6 ± 1.3 kg/m3
18637 kPa
  mass density: 1069.7 ± 1.3 kg/m3
18648 kPa
  mass density: 1069.8 ± 1.3 kg/m3
18658 kPa
  mass density: 1069.7 ± 1.3 kg/m3
18669 kPa
  mass density: 1069.7 ± 1.3 kg/m3
18682 kPa
  mass density: 1069.8 ± 1.3 kg/m3
18692 kPa
  mass density: 1069.7 ± 1.3 kg/m3
18703 kPa
  mass density: 1069.8 ± 1.3 kg/m3
18716 kPa
  mass density: 1069.7 ± 1.3 kg/m3
18726 kPa
  mass density: 1069.8 ± 1.3 kg/m3
18737 kPa
  mass density: 1069.8 ± 1.3 kg/m3
18750 kPa
  mass density: 1069.8 ± 1.3 kg/m3
18761 kPa
  mass density: 1069.7 ± 1.3 kg/m3
18772 kPa
  mass density: 1069.7 ± 1.3 kg/m3
18783 kPa
  mass density: 1069.8 ± 1.3 kg/m3
18794 kPa
  mass density: 1069.8 ± 1.3 kg/m3
18806 kPa
  mass density: 1069.8 ± 1.3 kg/m3
18817 kPa
  mass density: 1069.9 ± 1.3 kg/m3
18830 kPa
  mass density: 1069.9 ± 1.3 kg/m3
18841 kPa
  mass density: 1069.9 ± 1.3 kg/m3
18851 kPa
  mass density: 1069.8 ± 1.3 kg/m3
18875 kPa
  mass density: 1069.9 ± 1.3 kg/m3
18886 kPa
  mass density: 1069.9 ± 1.3 kg/m3
18910 kPa
  mass density: 1069.9 ± 1.3 kg/m3
18921 kPa
  mass density: 1069.9 ± 1.3 kg/m3
18934 kPa
  mass density: 1069.9 ± 1.3 kg/m3
18945 kPa
  mass density: 1069.9 ± 1.3 kg/m3
19002 kPa
  mass density: 1069.9 ± 1.3 kg/m3
19015 kPa
  mass density: 1069.9 ± 1.3 kg/m3
19026 kPa
  mass density: 1070 ± 1.3 kg/m3
19039 kPa
  mass density: 1070 ± 1.3 kg/m3
19050 kPa
  mass density: 1070 ± 1.3 kg/m3
19062 kPa
  mass density: 1070 ± 1.3 kg/m3
19073 kPa
  mass density: 1070 ± 1.3 kg/m3
19084 kPa
  mass density: 1069.9 ± 1.3 kg/m3
19097 kPa
  mass density: 1070 ± 1.3 kg/m3
19108 kPa
  mass density: 1070.1 ± 1.3 kg/m3
19119 kPa
  mass density: 1070.1 ± 1.3 kg/m3
19132 kPa
  mass density: 1070.1 ± 1.3 kg/m3
19154 kPa
  mass density: 1069.9 ± 1.3 kg/m3
19168 kPa
  mass density: 1070 ± 1.3 kg/m3
19179 kPa
  mass density: 1070.1 ± 1.3 kg/m3
19190 kPa
  mass density: 1070 ± 1.3 kg/m3
19204 kPa
  mass density: 1070 ± 1.3 kg/m3
19215 kPa
  mass density: 1070.1 ± 1.3 kg/m3
19226 kPa
  mass density: 1070.1 ± 1.3 kg/m3
19240 kPa
  mass density: 1070.1 ± 1.3 kg/m3
19251 kPa
  mass density: 1070.1 ± 1.3 kg/m3
19262 kPa
  mass density: 1070.1 ± 1.3 kg/m3
19274 kPa
  mass density: 1070.1 ± 1.3 kg/m3
19287 kPa
  mass density: 1070.1 ± 1.3 kg/m3
19299 kPa
  mass density: 1070 ± 1.3 kg/m3
19310 kPa
  mass density: 1070.2 ± 1.3 kg/m3
19323 kPa
  mass density: 1070.1 ± 1.3 kg/m3
19335 kPa
  mass density: 1070.2 ± 1.3 kg/m3
19408 kPa
  mass density: 1070.2 ± 1.3 kg/m3
19444 kPa
  mass density: 1070.2 ± 1.3 kg/m3
19482 kPa
  mass density: 1070.2 ± 1.3 kg/m3
19493 kPa
  mass density: 1070.2 ± 1.3 kg/m3
19507 kPa
  mass density: 1070.1 ± 1.3 kg/m3
19518 kPa
  mass density: 1070.1 ± 1.3 kg/m3
19530 kPa
  mass density: 1070.2 ± 1.3 kg/m3
19544 kPa
  mass density: 1070.2 ± 1.3 kg/m3
19556 kPa
  mass density: 1070.1 ± 1.3 kg/m3
19568 kPa
  mass density: 1070.3 ± 1.3 kg/m3
19579 kPa
  mass density: 1070.3 ± 1.3 kg/m3
19593 kPa
  mass density: 1070.2 ± 1.3 kg/m3
19605 kPa
  mass density: 1070.3 ± 1.3 kg/m3
